Assay results: ChEMBL document CHEMBL1158851, “Friedelane triterpenoids from Maytenus macrocarpa” (J Nat Prod, 1998)

Legend:
Assay type in all cases: functional, cell-based
[1] = test system: P388; assay: Cytotoxicity against mouse P388 cells
[2] = test system: A549; assay: Cytotoxicity against human A549 cells
[3] = test system: HT-29; assay: Cytotoxicity against human HT-29 cells
[4] = test system: SK-MEL-28; assay: Cytotoxicity against human SK-MEL-28 cells

Measured: IC50

C[C@H]1C(=O)CC(=O)[C@@H]2[C@]1(C)CC[C@H]1[C@@]2(C)CC[C@@]2(C)[C@@H]3CC(C)(C)CC[C@]3(CO)CC[C@]12C
> 10 µg/mL: all assays above

CC(=O)OC[C@]12CCC(C)(C)C[C@H]1[C@]1(C)CC[C@@]3(C)[C@@H]4C(=O)C=C(OC(C)=O)[C@H](C)[C@@]4(C)CC[C@@H]3[C@@]1(C)CC2
> 10 µg/mL: all assays above
